Literature values, collected in patent US20160120807A1, “CELL-SURFACE DECORATION WITH ACTIVE AGENTS” (University of Louisville Research Foundation, Inc., priority 2005, published 2016).

Tests used:
NPY Y1 receptor [1] = target: T1, NPY Y1 receptor (Homo sapiens, UniProt P25929)
T1 construct: host or cells: smooth muscle cells; vessel after angioplasty
T1 sequence (P25929 1-384): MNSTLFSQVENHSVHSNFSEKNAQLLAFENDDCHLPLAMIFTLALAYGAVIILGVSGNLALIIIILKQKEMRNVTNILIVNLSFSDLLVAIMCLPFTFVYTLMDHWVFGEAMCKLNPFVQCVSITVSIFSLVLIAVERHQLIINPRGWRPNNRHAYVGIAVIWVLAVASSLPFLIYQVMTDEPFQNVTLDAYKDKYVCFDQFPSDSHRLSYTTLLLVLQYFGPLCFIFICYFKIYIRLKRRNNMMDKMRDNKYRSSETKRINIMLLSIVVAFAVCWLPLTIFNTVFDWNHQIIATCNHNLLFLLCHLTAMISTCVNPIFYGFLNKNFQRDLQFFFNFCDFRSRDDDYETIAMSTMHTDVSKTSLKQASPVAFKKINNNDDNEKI

NPY Y1 receptor [2] = target: T1, NPY Y1 receptor; remark: listed apart in the source

For `N=C(N)NCCC[C@@H](NC(=O)C(c1ccccc1)c1ccccc1)C(=O)NCc1ccc(O)cc1` [BIBP3226, (R)—N2-(diphenylacetyl)-N-[(4-hydroxy-phenyl)methyl]-D-arginine-amide], the “mitogen-activated protein kinase (MAPK) activity in smooth muscle cells” value (NPY Y1 receptor [1]) is given as “reduces mitogen-activated protein kinase (MAPK) activity” and the “neointimal hyperplasia after angioplasty” value (NPY Y1 receptor [2]) is given as “reduces neointimal hyperplasia”.
